Data from patent publication US11858942B2, “Triazolotriazine derivatives as A2A receptor antagonists” (ZHEJIANG VIMGREEN PHARMACEUTICALS, LTD., priority 2018, dated 2024).

Biological target: T1, A2AR (hADORA2A-HEK293 cells) (Homo sapiens, UniProt P29274)
T1 construct: expressed in transfected cells; host or cells: HEK293 (hADORA2A-HEK293)
Test: functional cAMP production assay (NECA-stimulated cAMP production, TR-FRET)
Type: cell-based
Settings: inhibition of NECA (EC80)-stimulated cAMP production in A2AR-expressing HEK293 cells; read-out: A2AR Potency
Procedure: The antagonistic activities of the triazolotriazine derivatives of the present invention were measured in a functional cAMP production assay. The assay consists of NECA stimulation of cAMP production and its inhibition by A2AR antagonists in A2AR-expressing HEK293 cells (hADORA2A-HEK293). All cells were cultured in complete medium at 37° C. in 5% CO2. The cells were detached with pancreatin and collected at 200 g for 5 min. After resuspending the cells in fresh complete medium, the cell viability is counted using the trypan blue exclusion method. […] After the cells were diluted with Hank's buffered saline solution containing HEPES (5 mM), BSA stabilizer (0.1%) and […] Rolipram (10 μM), cells were loaded into white opaque 384-well plates (˜500 cells/well, 10 μl/well) and incubated with test compound at a suitable concentration range (11 concentrations) for 20 min at room temperature. Then the A2A receptor agonist NECA (final concentration=EC80, which was determined in the same experiment slightly earlier) was added to the sample and the mixture was incubated again for 30 min at 37° C. […] The inhibition rate (%) was calculated according to the following formula. The IC50 values were calculated from concentration−inhibition (%) curves after log transformation.

T1 sequence (P29274 whole entry): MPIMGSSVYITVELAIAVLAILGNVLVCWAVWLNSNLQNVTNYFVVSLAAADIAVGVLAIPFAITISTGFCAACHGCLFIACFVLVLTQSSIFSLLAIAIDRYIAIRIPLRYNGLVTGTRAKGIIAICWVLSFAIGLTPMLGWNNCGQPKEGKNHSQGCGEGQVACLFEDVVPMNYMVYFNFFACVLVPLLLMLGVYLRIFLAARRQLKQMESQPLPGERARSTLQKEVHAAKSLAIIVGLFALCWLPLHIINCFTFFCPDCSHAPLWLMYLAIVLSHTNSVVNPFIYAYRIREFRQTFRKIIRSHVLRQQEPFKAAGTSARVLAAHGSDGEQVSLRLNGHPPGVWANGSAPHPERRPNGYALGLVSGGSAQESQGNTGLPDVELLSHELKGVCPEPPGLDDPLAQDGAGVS

Structure (SMILES)	IC50 [nM]
Nc1nc(NCCc2ccc(C(=O)NCCN3CCCC3)cc2)nc2nc(-c3ccco3)nn12 [Example 11, 4-(2-((7-Amino-2-(furan-2-yl)-[1,2,4]triazolo[1,5-a][1,3,5]triazin-5-yl)amino)ethyl)-N-(2-(pyrrolidin-1-yl)ethyl)benzamide]	43.4
Nc1nc(NCCc2ccc(C(=O)NCCN3CCOCC3)cc2)nc2nc(-c3ccco3)nn12 [Example 12, 4-(2-((7-Amino-2-(furan-2-yl)-[1,2,4]triazolo[1,5-a][1,3,5]triazin-5-yl)amino)ethyl)-N-(2-morpholinoethyl)benzamide]	27.1
CN1CCN(CCNC(=O)c2ccc(CCNc3nc(N)n4nc(-c5ccco5)nc4n3)cc2)CC1 [Example 13, 4-(2-((7-Amino-2-(furan-2-yl)-[1,2,4]triazolo[1,5-a][1,3,5]triazin-5-yl)amino)ethyl)-N-(2-(4-methylpiperazin-1-yl)ethyl)benzamide]	33
CNC(=O)c1ccc(CCNc2nc(N)n3nc(-c4ccco4)nc3n2)cc1 [Example 35, 4-(2-(7-Amino-2-(furan-2-yl)-[1,2,4]triazolo[1,5-a][1,3,5]triazin-5-ylamino)ethyl)-N-methylbenzamide]	13.8
NC(=O)c1ccc(CCNc2nc(N)n3nc(-c4ccco4)nc3n2)cc1 [Example 36, 4-(2-(7-Amino-2-(furan-2-yl)-[1,2,4]triazolo[1,5-a][1,3,5]triazin-5-ylamino)ethyl)benzamide]	13.3
CC(C)N(C)C(=O)c1ccc(CCNc2nc(N)n3nc(-c4ccco4)nc3n2)cc1 [Example 42, 4-(2-(7-Amino-2-(furan-2-yl)-[1,2,4]triazolo[1,5-a][1,3,5]triazin-5-ylamino)ethyl)-N-isopropyl-N-methylbenzamide]	19.3
Nc1nc(NCCc2ccc(C(=O)N3CCc4ncccc4C3)cc2)nc2nc(-c3ccco3)nn12 [Example 45, (4-(2-(7-Amino-2-(furan-2-yl)-[1,2,4]triazolo[1,5-a][1,3,5]triazin-5-ylamino)ethyl)phenyl)-(7,8-dihydro-1,6-naphthyridin-6(5H)-yl)methanone]	27.4
Nc1nc(NCCc2ccc(-c3nn[nH]n3)cc2)nc2nc(-c3ccco3)nn12 [Example 125, N5-(4-(2H-Tetrazol-5-yl)phenethyl)-2-(furan-2-yl)-[1,2,4]triazolo[1,5-a][1,3,5]triazine-5,7-diamine]	14.5

Further compounds by falling IC50, results first:

IC50 [nM]	Structure (SMILES)
24	Nc1nc(NCCc2ccc(C(=O)N3CCC(F)(F)CC3)cc2)nc2nc(-c3ccco3)nn12 [Example 16, (4-(2-((7-Amino-2-(furan-2-yl)-[1,2,4]triazolo[1,5-a][1,3,5]triazin-5-yl)amino)ethyl)phenyl)-(4,4-difluoropiperidin-1-yl)methanone]
17.1	CC(C)(CO)NC(=O)c1ccc(CCNc2nc(N)n3nc(-c4ccco4)nc3n2)cc1 [Example 43, 4-(2-(7-Amino-2-(furan-2-yl)-[1,2,4]triazolo[1,5-a][1,3,5]triazin-5-ylamino)ethyl)-N-(1-hydroxy-2-methylpropan-2-yl)benzamide]
9.08	Nc1nc(NCCc2ccc3cnccc3c2)nc2nc(-c3ccco3)nn12 [Example 27, 2-(Furan-2-yl)-N5-(2-(isoquinolin-6-yl)ethyl)-[1,2,4]triazolo[1,5-a][1,3,5]triazine-5,7-diaminee]
7.54	Nc1nc(NCCc2ccc(C(=O)N3CCC(F)CC3)cc2)nc2nc(-c3ccco3)nn12 [Example 17, (4-(2-((7-Amino-2-(furan-2-yl)-[1,2,4]triazolo[1,5-a][1,3,5]triazin-5-yl)amino)ethyl)phenyl)-(4-fluoropiperidin-1-yl)methanone]
6	Nc1nc(NCCc2ccc(C(=O)N3CCCCC3)cc2)nc2nc(-c3ccco3)nn12 [Example 37, (4-(2-(7-Amino-2-(furan-2-yl)-[1,2,4]triazolo[1,5-a][1,3,5]triazin-5-ylamino)ethyl)-phenyl)(piperidin-1-yl)methanone]
